Assay results taken from patent US10568822B2, “Melanogenesis inhibitor comprising d-pantothenyl alcohol, and skin-whitening cosmetic containing same melanogenesis inhibitor” (POLA CHEMICAL INDUSTRIES, INC., priority 2014, dated 2020).

Columns and labels:
human normal melanocytes = experiment: Melanogenesis inhibition experiment (14C-2-thiouracil incorporation); assay type: cell-based; conditions: for Melanin Amount (%) Sample (2): 1% plant extract or 0.1 μg/mL existing skin-whitening compound alone, ratio to control; for synergistic effect of a melanogenesis inhibitory action: in combination with D-pantothenyl alcohol, conclusion from Table 2
Experimental: According to the method described below, 2-thiouracil (^14C-labeled 2-thiouracil in the present test) which is specifically incorporated into melanin in the melanin synthesis process within cells was used to evaluate the melanogenesis inhibitory action. With a complete medium for melanocyte culture (Invitrogen Corporation) used in a 24-well plate, human normal melanocytes (Kurabo Industries, Ltd.) were seeded in each well at a concentration of 6.0×10^4 cells/well/0.5 mL. Under a 5% carbon dioxide atmosphere, the culture was conducted at 37° C. for 24 hours. Then, replacement was made such that a 0.5 mL medium containing D-pantothenyl alcohol at 0 mM or 1 mM was in each of three wells for each concentration and, to these […] wells, 0.5 μCi/well of 2-[2-^14C] thiouracil (Daiichi Clarity Co., Ltd.) was further added. And it was further cultured for 3 days under the same conditions as the aforementioned culture conditions. After completion of the culture, the culture medium was removed from each well, which was washed with PBS (phosphate-buffered saline), and the number of cells was measured using the WST-8 reagent (Dojindo Laboratories). The WST-8 reagent was removed from each well, which was washed with PBS, and using 100 (w/v) % trichloroacetic acid (Wako Pure Chemical Industries, Ltd.), the cells were separated from the bottom of the wells, to which water was then added for dilution so that the concentration of the trichloroacetic acid could be 10 (w/v) %, and which were allowed to stand in a refrigerator for 30 minutes. After the cells were recovered by centrifugation, the amount of ^14C-thiouracil in the cells recovered from each well was measured with a liquid scintillation counter (Aloka Co., Ltd.).
Relative to the radiation doses of the cells cultured in the media containing 0 mM D-pantothenyl alcohol (control), the radiation doses of the cells cultured in the media containing 1 mM D-pantothenyl alcohol were each obtained in percentage as the amount of melanin (%). In other words, it is possible to determine that the smaller the radiation dose incorporated into each cell is, the smaller the amount of melanin is, and accordingly, it is possible to determine that the melanin inhibition titer of the added ingredient is larger.
(§1) While 0 mM or 0 μM D-pantothenyl alcohol was used as a control similarly, the 1 mM D-pantothenyl alcohol in <Experiment 1> was replaced with each of the following samples (1) to (3) for experimenting.

[1] = test system: human normal keratinocytes; experiment: Keratinocyte cell proliferation experiment (WST-8); assay type: cell-based; conditions: for Cell Proliferation Rate (%) Sample (2): 1% plant extract or 0.1 μg/mL existing skin-whitening compound alone, ratio to control; for synergistic effect of a keratinocyte cell proliferation action: in combination with D-pantothenyl alcohol, conclusion from Table 2
Experimental: According to the method described below, the cell proliferation promoting action was evaluated. With a complete medium for keratinocyte culture (Kurabo Industries, Ltd.) used in a 24-well plate, human normal keratinocytes (Kurabo Industries, Ltd.) were seeded in each well at a concentration of 1.0×10^4 cells/well/1 mL. Under a 5% carbon dioxide atmosphere, the culture was conducted at 37° C. for 24 hours. Then, replacement was made such that a 1 mL medium containing D-pantothenyl alcohol at 0 μM, 15 μM, or 150 μM was in each of three wells for each concentration. And it was further cultured for 2 days under the same conditions as the aforementioned culture conditions. After completion of the culture, 20 μL of the WST-8 reagent (Dojindo Laboratories) was added to each well, and color reaction was allowed at 37° C. for 3 hours. After the reaction, absorbances at 450 nm and 650 nm were measured using a microplate reader, Benchmark Plus (Bio-Rad Laboratories), and the 450 nm absorbance measurement minus the 650 nm absorbance measurement was calculated to give a cell proliferation measurement.
Relative to the cell proliferation measurements for the wells cultured in the media containing 0 μM D-pantothenyl alcohol (control), the cell proliferation measurements for the wells cultured in the media containing D-pantothenyl alcohol were each obtained in percentage as a cell proliferation rate (%). In other words, it is possible to determine that the larger the absorbance value is, the higher the cell proliferation rate is, and accordingly, it is possible to determine that the cell proliferation promotion titer of the added ingredients is larger.
as §1
In addition, the 15 μM and the 150 μM D-pantothenyl alcohol in <Experiment 2> were replaced with the aforementioned samples (1) to (3) respectively for experimenting. Note that the amount of melanin (%) and the cell proliferation rate (%) in Table 2 are both a ratio to the control, as described in Experiment 1 and Experiment 2.

| SMILES | Melanin Amount (%) Sample (2) (human normal melanocytes) | synergistic effect of a melanogenesis inhibitory action (human normal melanocytes) | Cell Proliferation Rate (%) Sample (2) [1] | synergistic effect of a keratinocyte cell proliferation action [1] | Melanin Amount (%) Sample (1) (human normal melanocytes; 1 mM D-pantothenyl alcohol alone, ratio to 0 mM control) | melanogenesis inhibitory action (human normal melanocytes; Experiment 1, 1 mM vs 0 mM, FIG. 1, result in words) | Cell Proliferation Rate (%) Sample (1) ([1]; 1 mM D-pantothenyl alcohol alone, ratio to 0 μM control) | keratinocyte cell proliferation action ([1]; Experiment 2, 15 μM or 150 μM vs 0 μM, FIG. 2, result in words) |
| --- | --- | --- | --- | --- | --- | --- | --- | --- |
| c1ccc(C(c2ccccc2)(c2ccccc2)n2ccnc2)cc1 [Compound 1, 1-(triphenylmethyl) imidazole] | 93.1% | synergistic effect | 112.1% | synergistic effect |  |  |  |  |
| CSCCC(NC(=O)c1ccc(C)cc1)C(=O)O (stereo not shown) [Compound 45, N-(toluyl) methionine] | 93.4% |  | 113.2% |  |  |  |  |  |
| CCCCc1ccc(O)cc1O [4-n-butyl resorcinol] | 93.2% | synergistic effect | 120.3% | synergistic effect |  |  |  |  |
| O=C(N[C@@H](CO)C(=O)O)c1ccccc1 [Compound 31, N-benzoyl-L-serine] | 94.6% | synergistic effect | 118.7% | synergistic effect |  |  |  |  |
| C[C@H]1[C@H](C)CC[C@]2(C(=O)O)CC[C@]3(C)C(=CC[C@@H]4[C@@]5(C)CCC(OP(=O)(O)O)C(C)(C)[C@@H]5CC[C@]43C)[C@H]12 (stereo partly shown) [Ursolic acid phosphate ester, ursolic acid phosphate ester] | 98.4% | synergistic effect | 118.6% | synergistic effect |  |  |  |  |
| CC(C)(CO)[C@@H](O)C(=O)NCCCO [D-pantothenyl alcohol] |  |  |  |  | 69.8% | has a melanogenesis inhibitory action | 123.3% | has a keratinocyte cell proliferation action |
